Reference: ChEMBL document CHEMBL1201862, “PubChem BioAssay data set” (2004)
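Cultured in 96-well plates, cells were exposed to test compound for 48 hours across five concentrations. The concentration for 50% growth inhibition is given as GI50.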 Activity calls are given as the source filed them. Rule as the data show it: active = GI50 up to about 1.1 µM and inactive = higher.

Legend:
Test in all cases: growth of human tumour cells (NCI), 48 h
786-0 = tested on: 786-0
A498 = tested on: A498
COLO 205 = tested on: COLO 205
DU-145 = tested on: DU-145
HCT-15 = tested on: HCT-15
HOP-62 = tested on: HOP-62
HOP-92 = tested on: HOP-92
HT-29 = tested on: HT-29
M14 = tested on: M14
MCF7 = tested on: MCF7
MDA-MB-435 = tested on: MDA-MB-435
NCI-H23 = tested on: NCI-H23
RPMI-8226 = tested on: RPMI-8226
SF-539 = tested on: SF-539
SK-MEL-2 = tested on: SK-MEL-2
SN12C = tested on: SN12C
SNB-19 = tested on: SNB-19
SR = tested on: SR
UACC-62 = tested on: UACC-62
UO-31 = tested on: UO-31

Question: What does the source list for N=C(N)N/N=C/c1c(Cl)nc2sccn12?
Answer: GI50 (786-0): 17.1 µM (inactive); GI50 (A498): 28.2 µM (inactive); GI50 (COLO 205): 14.9 µM (inactive); GI50 (DU-145): 44.4 µM (inactive); GI50 (HCT-15): > 10 µM; GI50 (HOP-62): 21.5 µM (inactive); GI50 (HOP-92): 21.1 µM (inactive); GI50 (HT-29): 17.3 µM (inactive); GI50 (M14): 15.5 µM (inactive); GI50 (MCF7): 26.9 µM (inactive); GI50 (MDA-MB-435): 36.1 µM (inactive); GI50 (NCI-H23): 46.6 µM (inactive); GI50 (RPMI-8226): 19.4 µM (inactive); GI50 (SF-539): 19.8 µM (inactive); GI50 (SK-MEL-2): > 10 µM (inactive); GI50 (SN12C): 38.5 µM (inactive); GI50 (SNB-19): 35.8 µM (inactive); GI50 (SR): 22.9 µM (inactive); GI50 (UACC-62): 31.8 µM (inactive); GI50 (UO-31): 34.7 µM (inactive)

Question: Which GI50 (786-0) does the source give for COC(=O)C/N=C1\NC(=S)N(Cc2ccc(OC)cc2)C12CCCC2 here?
Answer: Its GI50 is > 100 µM (inactive).

Question: What about the GI50 (A498) of the same compound?
Answer: The GI50 was > 100 µM (inactive).

Question: And the GI50 (COLO 205)?
Answer: Its GI50 is > 100 µM (inactive).

Question: What about the GI50 (DU-145) of the same compound?
Answer: Its GI50 is > 100 µM (inactive).

Question: And the GI50 (HCT-15)?
Answer: The GI50 was > 100 µM.

Question: And the GI50 (HOP-62)?
Answer: Its GI50 is > 100 µM (inactive).

Question: What about the GI50 (HOP-92) of the same compound?
Answer: Its GI50 is > 100 µM (inactive).

Question: What about the GI50 (HT-29) of the same compound?
Answer: Its GI50 is > 100 µM (inactive).

Question: And the GI50 (M14)?
Answer: The GI50 was > 100 µM (inactive).

Question: And the GI50 (MCF7)?
Answer: Its GI50 is > 100 µM (inactive).

Question: What about the GI50 (MDA-MB-435) of the same compound?
Answer: Its GI50 is > 100 µM (inactive).

Question: What about the GI50 (NCI-H23) of the same compound?
Answer: Its GI50 is > 100 µM (inactive).

Question: And the GI50 (RPMI-8226)?
Answer: The GI50 was > 100 µM (inactive).

Question: What about the GI50 (SF-539) of the same compound?
Answer: Its GI50 is > 100 µM (inactive).

Question: What about the GI50 (SK-MEL-2) of the same compound?
Answer: The GI50 was > 100 µM (inactive).

Question: And the GI50 (SN12C)?
Answer: Its GI50 is > 100 µM (inactive).

Question: And the GI50 (SNB-19)?
Answer: The GI50 was > 100 µM (inactive).

Question: And the GI50 (SR)?
Answer: Its GI50 is > 100 µM (inactive).

Question: What about the GI50 (UACC-62) of the same compound?
Answer: Its GI50 is > 100 µM (inactive).

Question: What about the GI50 (UO-31) of the same compound?
Answer: The GI50 was > 100 µM (inactive).

Question: With COc1ccc(C(O)/C(=N/N)c2nc3ccc(Cl)cc3nc2O)cc1 (configuration not stated) as the compound, how does the GI50 (786-0) read?
Answer: The GI50 was > 100 µM (inactive).

Question: What about the GI50 (A498) of the same compound?
Answer: Its GI50 is > 100 µM (inactive).

Question: What about the GI50 (COLO 205) of the same compound?
Answer: Its GI50 is > 100 µM (inactive).

Question: And the GI50 (DU-145)?
Answer: Its GI50 is > 100 µM (inactive).

Question: And the GI50 (HCT-15)?
Answer: Its GI50 is > 100 µM.

Question: What about the GI50 (HOP-62) of the same compound?
Answer: The GI50 was > 100 µM (inactive).

Question: And the GI50 (HOP-92)?
Answer: Its GI50 is 63.4 µM (inactive).

Question: What about the GI50 (HT-29) of the same compound?
Answer: The GI50 was > 100 µM (inactive).

Question: What about the GI50 (M14) of the same compound?
Answer: The GI50 was > 100 µM (inactive).

Question: And the GI50 (MCF7)?
Answer: Its GI50 is 62.7 µM (inactive).

Question: What about the GI50 (MDA-MB-435) of the same compound?
Answer: Its GI50 is > 100 µM (inactive).

Question: And the GI50 (NCI-H23)?
Answer: The GI50 was > 100 µM (inactive).

Question: What about the GI50 (RPMI-8226) of the same compound?
Answer: Its GI50 is 97.7 µM (inactive).

Question: What about the GI50 (SF-539) of the same compound?
Answer: Its GI50 is > 100 µM (inactive).

Question: And the GI50 (SK-MEL-2)?
Answer: Its GI50 is > 100 µM (inactive).

Question: And the GI50 (SN12C)?
Answer: The GI50 was > 100 µM (inactive).

Question: And the GI50 (SNB-19)?
Answer: Its GI50 is > 100 µM (inactive).

Question: What about the GI50 (SR) of the same compound?
Answer: Its GI50 is > 100 µM (inactive).

Question: What about the GI50 (UACC-62) of the same compound?
Answer: Its GI50 is > 100 µM (inactive).

Question: What about the GI50 (UO-31) of the same compound?
Answer: Its GI50 is > 100 µM (inactive).

Question: Which results are given for N#CCCN(CCCN(CCCN(C(=O)Nc1ccccc1)c1ccccc1)C(=O)Nc1ccccc1)C(=O)Nc1ccccc1?
Answer: GI50 (786-0): > 8.75 µM (inactive); GI50 (A498): > 8.75 µM (inactive); GI50 (COLO 205): > 8.75 µM (inactive); GI50 (DU-145): > 8.75 µM (inactive); GI50 (HCT-15): > 100 µM; GI50 (HOP-62): > 8.75 µM (inactive); GI50 (HOP-92): 20.2 µM (inactive); GI50 (HT-29): > 8.75 µM (inactive); GI50 (M14): > 8.75 µM (inactive); GI50 (MCF7): > 8.75 µM (inactive); GI50 (MDA-MB-435): > 8.75 µM (inactive); GI50 (RPMI-8226): 3.44 µM (inactive); GI50 (SF-539): > 8.75 µM (inactive); GI50 (SK-MEL-2): > 8.75 µM (inactive); GI50 (SN12C): > 8.75 µM (inactive); GI50 (SNB-19): > 8.75 µM (inactive); GI50 (SR): 0.998 µM (active); GI50 (UACC-62): > 8.75 µM (inactive); GI50 (UO-31): > 8.75 µM (inactive)

Question: Which GI50 (786-0) does the source give for Nc1nc2c(=O)c3ccccc3sc2s1 here?
Answer: The GI50 was 34.7 µM (inactive).

Question: And the GI50 (A498)?
Answer: Its GI50 is 25.4 µM (inactive).

Question: And the GI50 (COLO 205)?
Answer: The GI50 was 96.4 µM (inactive).

Question: What about the GI50 (DU-145) of the same compound?
Answer: The GI50 was 68.9 µM (inactive).

Question: What about the GI50 (HCT-15) of the same compound?
Answer: Its GI50 is 34.5 µM.

Question: And the GI50 (HOP-62)?
Answer: Its GI50 is 29.2 µM (inactive).

Question: What about the GI50 (HOP-92) of the same compound?
Answer: Its GI50 is 37.4 µM (inactive).

Question: And the GI50 (HT-29)?
Answer: Its GI50 is 54.8 µM (inactive).

Question: And the GI50 (M14)?
Answer: Its GI50 is > 100 µM (inactive).

Question: What about the GI50 (MCF7) of the same compound?
Answer: Its GI50 is 5.96 µM (inactive).

Question: What about the GI50 (MDA-MB-435) of the same compound?
Answer: Its GI50 is > 100 µM (inactive).

Question: What about the GI50 (NCI-H23) of the same compound?
Answer: Its GI50 is 48.5 µM (inactive).

Question: And the GI50 (RPMI-8226)?
Answer: The GI50 was 33.6 µM (inactive).

Question: What about the GI50 (SF-539) of the same compound?
Answer: Its GI50 is 17.3 µM (inactive).

Question: What about the GI50 (SK-MEL-2) of the same compound?
Answer: Its GI50 is > 100 µM (inactive).

Question: And the GI50 (SN12C)?
Answer: Its GI50 is 84.3 µM (inactive).

Question: What about the GI50 (SNB-19) of the same compound?
Answer: The GI50 was 41.9 µM (inactive).

Question: What about the GI50 (SR) of the same compound?
Answer: The GI50 was 48.3 µM (inactive).

Question: What about the GI50 (UACC-62) of the same compound?
Answer: Its GI50 is 26.6 µM (inactive).

Question: What about the GI50 (UO-31) of the same compound?
Answer: The GI50 was 35.6 µM (inactive).

Question: Which GI50 (786-0) does the source give for FC(F)(Sc1ccccc1)c1nc2ccccc2o1 here?
Answer: The GI50 was 91.6 µM (inactive).

Question: And the GI50 (A498)?
Answer: Its GI50 is 92.7 µM (inactive).

Question: And the GI50 (COLO 205)?
Answer: Its GI50 is > 100 µM (inactive).

Question: And the GI50 (DU-145)?
Answer: Its GI50 is 67.8 µM (inactive).

Question: And the GI50 (HCT-15)?
Answer: Its GI50 is 22 µM.

Question: What about the GI50 (HOP-62) of the same compound?
Answer: The GI50 was > 100 µM (inactive).

Question: What about the GI50 (HOP-92) of the same compound?
Answer: Its GI50 is 12.5 µM (inactive).

Question: And the GI50 (HT-29)?
Answer: The GI50 was 33.6 µM (inactive).

Question: And the GI50 (M14)?
Answer: The GI50 was 68.9 µM (inactive).

Question: What about the GI50 (MCF7) of the same compound?
Answer: Its GI50 is 35.2 µM (inactive).

Question: And the GI50 (MDA-MB-435)?
Answer: The GI50 was 95.3 µM (inactive).

Question: And the GI50 (NCI-H23)?
Answer: Its GI50 is 91 µM (inactive).

Question: And the GI50 (RPMI-8226)?
Answer: Its GI50 is 40.3 µM (inactive).

Question: And the GI50 (SF-539)?
Answer: The GI50 was 63.8 µM (inactive).

Question: And the GI50 (SK-MEL-2)?
Answer: The GI50 was 67.8 µM (inactive).

Question: What about the GI50 (SN12C) of the same compound?
Answer: The GI50 was 74.5 µM (inactive).

Question: And the GI50 (SR)?
Answer: The GI50 was 22 µM (inactive).

Question: And the GI50 (UACC-62)?
Answer: Its GI50 is 67.8 µM (inactive).

Question: And the GI50 (UO-31)?
Answer: Its GI50 is 49 µM (inactive).

Question: Which results are given for Cc1csc(NCc2ccc(Cl)cc2)n1?
Answer: GI50 (786-0): 61.4 µM (inactive); GI50 (A498): 40.1 µM (inactive); GI50 (COLO 205): 24.1 µM (inactive); GI50 (DU-145): > 100 µM (inactive); GI50 (HCT-15): 39.1 µM; GI50 (HOP-62): > 100 µM (inactive); GI50 (HOP-92): 23.4 µM (inactive); GI50 (HT-29): 47.1 µM (inactive); GI50 (M14): 45.7 µM (inactive); GI50 (MCF7): 43.3 µM (inactive); GI50 (MDA-MB-435): 52.2 µM (inactive); GI50 (NCI-H23): 32.3 µM (inactive); GI50 (RPMI-8226): 44 µM (inactive); GI50 (SF-539): > 100 µM (inactive); GI50 (SK-MEL-2): 50.9 µM (inactive); GI50 (SN12C): 81.5 µM (inactive); GI50 (SNB-19): 75.2 µM (inactive); GI50 (SR): 36.1 µM (inactive); GI50 (UO-31): 37.4 µM (inactive)
